Results as given in the supplement of paper PMC11451515.

Columns and labels:
Conditions in all cases: 48 h
[1] = test system: SEM cells; test: cell viability relative to DMSO control; higher = less cytotoxic
In short: (§1)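 Three leukemia lines were tested: NOMO1 and SEM at 500 cells/well and P12-Ichikawa at 1000 cells/well. Each was adapted for at least four passages in each medium and seeded in 5 μl in 1536-well plates, and library compounds in DMSO were pin-dosed from 47 μM to 0.79 nM in 11 threefold steps. After 48 h at 37°C, CellTiter-Glo One luminescence was read. Viability is a percentage relative to DMSO wells on each plate, with cell-free wells as background.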

[2] = test system: P12-Ichikawa; test: as above
In short: as §1

[3] = test system: NOMO1; test: as above
In short: as §1

[4] = test system: SEM cells; test: AUC of viability dose-response curve (% viability x log10 dose units); higher = less sensitive
In short: (§2)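 Over 48 h at 37°C, leukemia cells in 1536-well plates (500 or 1000 cells/well), adapted to each medium, received library compounds in DMSO at 11 threefold doses from 47 μM to 0.79 nM. CellTiter-Glo One luminescence, normalised per plate to DMSO and cell-free wells, was fitted by a four-parameter log-logistic function of log10 dose. The area under the curve was then integrated by trapezoidal rule, after scaling curves above full viability and removing those that failed quality control.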

[5] = test system: P12-Ichikawa; test: as above
In short: as §2

[6] = test system: NOMO1; test: as above
In short: as §2

O=C(C[C@@H]1C/C=C\CCC(=O)O[C@H](c2ccccc2)CNC1=O)NCc1ccc(Cl)cc1
cell viability [%]
Conditions | [1] | [2] | [3]
HPLM + 10% dialyzed FBS, 0.000781 µM | 77 | 99.1 | 112
HPLM + 10% dialyzed FBS, 0.00234 µM | 109 | 110 | 125
HPLM + 10% dialyzed FBS, 0.00702 µM | 46.9 | 79.7 | 117
HPLM + 10% dialyzed FBS, 0.0211 µM | 111 | 117 | 125
HPLM + 10% dialyzed FBS, 0.0632 µM | 109 | 126 | 111
HPLM + 10% dialyzed FBS, 0.19 µM | 118 | 122 | 138
HPLM + 10% dialyzed FBS, 0.569 µM | 128 | 116 | 133
HPLM + 10% dialyzed FBS, 1.71 µM | 107 | 119 | 114
HPLM + 10% dialyzed FBS, 5.12 µM | 107 | 123 | 121
HPLM + 10% dialyzed FBS, 15.4 µM | 112 | 116 | 118
HPLM + 10% dialyzed FBS, 46.1 µM | 118 | 117 | 114
RPMI 5 mM glucose + 10% FBS, 0.000781 µM | 85.7 | 95.1 | 87.2
RPMI 5 mM glucose + 10% FBS, 0.00234 µM | 102 | 117 | 106
RPMI 5 mM glucose + 10% FBS, 0.00702 µM | 11.1 | 70 | 120
RPMI 5 mM glucose + 10% FBS, 0.0211 µM | 88.8 | 112 | 109
RPMI 5 mM glucose + 10% FBS, 0.0632 µM | 95.7 | 115 | 104
RPMI 5 mM glucose + 10% FBS, 0.19 µM | 96.3 | 118 | 115
RPMI 5 mM glucose + 10% FBS, 0.569 µM | 101 | 128 | 114
RPMI 5 mM glucose + 10% FBS, 1.71 µM | 102 | 128 | 102
RPMI 5 mM glucose + 10% FBS, 5.12 µM | 98.9 | 115 | 109
RPMI 5 mM glucose + 10% FBS, 15.4 µM | 90.9 | 119 | 98.5
RPMI 5 mM glucose + 10% FBS, 46.1 µM | 94 | 123 | 110
RPMI 5 mM glucose + 10% dialyzed FBS, 0.000781 µM | 83.6 | 102 | 92.2
RPMI 5 mM glucose + 10% dialyzed FBS, 0.00234 µM | 106 | 115 | 114
RPMI 5 mM glucose + 10% dialyzed FBS, 0.00702 µM | 34.3 | 79.3 | 99.3
RPMI 5 mM glucose + 10% dialyzed FBS, 0.0211 µM | 121 | 120 | 111
RPMI 5 mM glucose + 10% dialyzed FBS, 0.0632 µM | 116 | 120 | 113
RPMI 5 mM glucose + 10% dialyzed FBS, 0.19 µM | 128 | 120 | 117
RPMI 5 mM glucose + 10% dialyzed FBS, 0.569 µM | 122 | 123 | 120
RPMI 5 mM glucose + 10% dialyzed FBS, 1.71 µM | 104 | 119 | 125
RPMI 5 mM glucose + 10% dialyzed FBS, 5.12 µM | 107 | 114 | 105
RPMI 5 mM glucose + 10% dialyzed FBS, 15.4 µM | 103 | 120 | 111
RPMI 5 mM glucose + 10% dialyzed FBS, 46.1 µM | 102 | 113 | 99.5

AUC of viability dose-response curve
Conditions | [4] | [5] | [6]
HPLM + 10% dialyzed FBS | 437 | 452 | 473
RPMI 5 mM glucose + 10% FBS | 415 | 447 | 471
RPMI 5 mM glucose + 10% dialyzed FBS | 436 | 457 | 465

COc1cc(NC(=O)c2ccc(-c3ccc(Cl)cc3)o2)cc(OC)c1
cell viability [%]
Conditions | [1] | [2] | [3]
HPLM + 10% dialyzed FBS, 0.000781 µM | 73 | 93.8 | 95.5
HPLM + 10% dialyzed FBS, 0.00234 µM | 94.6 | 111 | 103
HPLM + 10% dialyzed FBS, 0.00702 µM | 93.6 | 110 | 112
HPLM + 10% dialyzed FBS, 0.0211 µM | 106 | 112 | 112
HPLM + 10% dialyzed FBS, 0.0632 µM | 98.5 | 115 | 114
HPLM + 10% dialyzed FBS, 0.19 µM | 114 | 109 | 118
HPLM + 10% dialyzed FBS, 0.569 µM | 116 | 111 | 112
HPLM + 10% dialyzed FBS, 1.71 µM | 107 | 111 | 104
HPLM + 10% dialyzed FBS, 5.12 µM | 107 | 101 | 61.8
HPLM + 10% dialyzed FBS, 15.4 µM | 94.3 | 99.2 | 52.7
HPLM + 10% dialyzed FBS, 46.1 µM | 107 | 104 | 39.6
RPMI 5 mM glucose + 10% FBS, 0.000781 µM | 77.7 | 97.4 | 91.4
RPMI 5 mM glucose + 10% FBS, 0.00234 µM | 90 | 105 | 106
RPMI 5 mM glucose + 10% FBS, 0.00702 µM | 103 | 100 | 104
RPMI 5 mM glucose + 10% FBS, 0.0211 µM | 104 | 115 | 100
RPMI 5 mM glucose + 10% FBS, 0.0632 µM | 107 | 108 | 101
RPMI 5 mM glucose + 10% FBS, 0.19 µM | 96.8 | 115 | 110
RPMI 5 mM glucose + 10% FBS, 0.569 µM | 94.2 | 108 | 108
RPMI 5 mM glucose + 10% FBS, 1.71 µM | 86.4 | 117 | 92.1
RPMI 5 mM glucose + 10% FBS, 5.12 µM | 102 | 101 | 58.7
RPMI 5 mM glucose + 10% FBS, 15.4 µM | 105 | 99.5 | 74.4
RPMI 5 mM glucose + 10% FBS, 46.1 µM | 98.9 | 95.5 | 72.3
RPMI 5 mM glucose + 10% dialyzed FBS, 0.000781 µM | 81.2 | 84 | 97.5
RPMI 5 mM glucose + 10% dialyzed FBS, 0.00234 µM | 96.2 | 107 | 111
RPMI 5 mM glucose + 10% dialyzed FBS, 0.00702 µM | 95.9 | 114 | 108
RPMI 5 mM glucose + 10% dialyzed FBS, 0.0211 µM | 102 | 113 | 108
RPMI 5 mM glucose + 10% dialyzed FBS, 0.0632 µM | 105 | 112 | 111
RPMI 5 mM glucose + 10% dialyzed FBS, 0.19 µM | 95.4 | 107 | 115
RPMI 5 mM glucose + 10% dialyzed FBS, 0.569 µM | 96.4 | 115 | 109
RPMI 5 mM glucose + 10% dialyzed FBS, 1.71 µM | 89.7 | 104 | 94.9
RPMI 5 mM glucose + 10% dialyzed FBS, 5.12 µM | 99.8 | 101 | 66.8
RPMI 5 mM glucose + 10% dialyzed FBS, 15.4 µM | 109 | 94.3 | 50.7
RPMI 5 mM glucose + 10% dialyzed FBS, 46.1 µM | 90.1 | 104 | 62.8

AUC of viability dose-response curve
Conditions | [4] | [5] | [6]
HPLM + 10% dialyzed FBS | 457 | 471 | 412
RPMI 5 mM glucose + 10% FBS | 465 | 472 | 432
RPMI 5 mM glucose + 10% dialyzed FBS | 463 | 472 | 418

CCCc1nc2c(C)cc(-c3nc4ccccc4n3C)cc2n1Cc1ccc(-c2ccccc2C(=O)O)cc1
cell viability [%]
Conditions | [1] | [2] | [3]
HPLM + 10% dialyzed FBS, 0.000781 µM | 117 | 123 | 117
HPLM + 10% dialyzed FBS, 0.00234 µM | 115 | 124 | 102
HPLM + 10% dialyzed FBS, 0.00702 µM | 123 | 122 | 112
HPLM + 10% dialyzed FBS, 0.0211 µM | 120 | 125 | 110
HPLM + 10% dialyzed FBS, 0.0632 µM | 124 | 126 | 139
HPLM + 10% dialyzed FBS, 0.19 µM | 140 | 135 | 140
HPLM + 10% dialyzed FBS, 0.569 µM | 100 | 130 | 136
HPLM + 10% dialyzed FBS, 1.71 µM | 71.4 | 127 | 138
HPLM + 10% dialyzed FBS, 5.12 µM | 127 | 123 | 127
HPLM + 10% dialyzed FBS, 15.4 µM | 140 | 133 | 134
HPLM + 10% dialyzed FBS, 46.1 µM | 144 | 123 | 134
RPMI 5 mM glucose + 10% FBS, 0.000781 µM | 114 | – | 123
RPMI 5 mM glucose + 10% FBS, 0.00234 µM | 121 | – | 123
RPMI 5 mM glucose + 10% FBS, 0.00702 µM | 152 | – | 139
RPMI 5 mM glucose + 10% FBS, 0.0211 µM | 133 | – | 126
RPMI 5 mM glucose + 10% FBS, 0.0632 µM | 124 | – | 150
RPMI 5 mM glucose + 10% FBS, 0.19 µM | 124 | – | 144
RPMI 5 mM glucose + 10% FBS, 0.569 µM | 101 | – | 131
RPMI 5 mM glucose + 10% FBS, 1.71 µM | 84.1 | – | 143
RPMI 5 mM glucose + 10% FBS, 5.12 µM | 159 | – | 150
RPMI 5 mM glucose + 10% FBS, 15.4 µM | 138 | – | 145
RPMI 5 mM glucose + 10% FBS, 46.1 µM | 137 | – | 132
RPMI 5 mM glucose + 10% dialyzed FBS, 0.000781 µM | 103 | – | –
RPMI 5 mM glucose + 10% dialyzed FBS, 0.00234 µM | 138 | – | –
RPMI 5 mM glucose + 10% dialyzed FBS, 0.00702 µM | 119 | – | –
RPMI 5 mM glucose + 10% dialyzed FBS, 0.0211 µM | 92.4 | – | –
RPMI 5 mM glucose + 10% dialyzed FBS, 0.0632 µM | 120 | – | –
RPMI 5 mM glucose + 10% dialyzed FBS, 0.19 µM | 125 | – | –
RPMI 5 mM glucose + 10% dialyzed FBS, 0.569 µM | 87.8 | – | –
RPMI 5 mM glucose + 10% dialyzed FBS, 1.71 µM | 64 | – | –
RPMI 5 mM glucose + 10% dialyzed FBS, 5.12 µM | 120 | – | –
RPMI 5 mM glucose + 10% dialyzed FBS, 15.4 µM | 116 | – | –
RPMI 5 mM glucose + 10% dialyzed FBS, 46.1 µM | 132 | – | –

AUC of viability dose-response curve
Conditions | [4] | [5] | [6]
HPLM + 10% dialyzed FBS | 456 | 470 | 446
RPMI 5 mM glucose + 10% FBS | 463 | 382 | 463
RPMI 5 mM glucose + 10% dialyzed FBS | 472 | 465 | 465
